From patent publication US8431523B2, “Oligomeric biosurfactants in dermatocosmetic compositions” (priority 2006, dated 2013)
Non-standard residues stand in square brackets, D forms with d. Residues, ends and D or L forms follow the SMILES beside them. *: point of attachment. Palmitoyl = CCCCCCCCCCCCCCCC(=O)*; Myristoyl = CCCCCCCCCCCCCC(=O)*

Columns and labels:
[1] = tested on: fibroblast proliferation; assay: Cyquant Cell Proliferation Assay; assay type: cell-based
Experimental: For purposes of the present invention, proliferation is assessed using the Cyquant® Cell Proliferation Assay from Molecular Probes. This assay measures increased production of cellular nucleic acids that, in turn, results in increased binding of fluorescent dye.

[2] = tested on: P. cepacia; assay: Minimum inhibitory concentration, P. cepacia; assay type: cell-based, Pseudomonas cepacia
Description: By “antimicrobial” activity is meant the ability to inhibit the growth of at least one microbial organism selected from the group consisting E. coli, P. aeruginosa, S. aureus and C. albicans, as confirmed by optical density measurement (“OD”). By “inhibition of growth” is meant reduction or absence of an increase greater than 5% in OD, a dimensionless measure of turbidity that is proportional to the amount of microbial cells present in a sample. For illustrative purposes, a OAB according to the present invention is added to a culture plate on which E. coli is present at a final concentration of about 5×10^3 cfu/ml. The plate is then incubated at about 37° C. for about 24 hours at which time the E. coli is resuspended by shaking, and OD is measured at about 600 nm. Thus, a reduction or absence of an increase greater than 5% in OD confirms the antimicrobial nature of the OAB with respect to E. coli. Minimum inhibitory concentration (“MIC”) is a method well-known to those of skill in the art for expressing antimicrobial activity. A compound to be tested is serially diluted into growth medium, inoculated with culture and then incubated. The MIC is the lowest dilution of compound that inhibits or prevents growth of the target microorganism.

Molecule: CCCCCCCCCCCCCC(=O)N[C@@H](CCCCN)C(=O)N[C@H](C(=O)N[C@H](C(=O)N[C@@H](CCCCN)C(=O)N[C@@H](CO)C(N)=O)[C@@H](C)O)[C@@H](C)O [P190, Myr-KTTKS-amide] (Myristoyl-KTTKS-NH2)
- increase fibroblast proliferation (qualitative) [1]: increase fibroblast proliferation
- MIC(P. cepacia) [2]: ≤ 100 ppm

Molecule: CCCCCCCCCCCCCC(=O)N[C@H](C(=O)N[C@@H](CCCCN)C(=O)N[C@H](C(=O)N[C@H](C(=O)N[C@@H](CCCCN)C(N)=O)[C@@H](C)O)[C@@H](C)O)[C@@H](C)O [P228, Myr-TKTTK-amide] (Myristoyl-TKTTK-NH2)
- increase fibroblast proliferation (qualitative) [1]: increase fibroblast proliferation

Molecule: CCCCCCCCCCCCCC(=O)N[C@@H](CCCCN)C(=O)N[C@@H](CC(C)C)C(=O)N[C@@H](C)C(=O)N[C@@H](CCCCN)C(=O)N[C@@H](CCCCN)C(=O)N[C@@H](C)C(=O)O [P252, Myr-KLAKKA-acid] (Myristoyl-KLAKKA-OH)
- increase fibroblast proliferation (qualitative) [1]: increase fibroblast proliferation

Molecule: CCCCCCCCCCCCCC(=O)N[C@@H](C)C(=O)N[C@@H](CCCCN)C(=O)N[C@@H](CCCCN)C(=O)N[C@@H](CC(C)C)C(=O)N[C@@H](C)C(=O)N[C@@H](CCCCN)C(=O)O [P256, Myr-AKKLAK-acid] (Myristoyl-AKKLAK-OH)
- increase fibroblast proliferation (qualitative) [1]: increase fibroblast proliferation

Molecule: CCCCCCCCCCCCCC(=O)NCC(=O)N[C@@H](C)C(=O)N[C@@H](CCCNC(=N)N)C(=O)O [P257, Myr-GAR-acid] (Myristoyl-Gly-Ala-Arg-OH)
- increase fibroblast proliferation (qualitative) [1]: increase fibroblast proliferation

Molecule: CCCCCCCCCCCCCC(=O)NCC(=O)N[C@@H](CCCNC(=N)N)C(=O)N[C@@H](CCCCN)C(=O)NCC(=O)N[C@@H](CC(=O)O)C(=O)O [P266, Myr-GRKGD-acid] (Myristoyl-GRKGD-OH)
- increase fibroblast proliferation (qualitative) [1]: increase fibroblast proliferation

Molecule: CCCCCCCCCCCCCC(=O)N[C@H](CC(C)C)C(=O)N[C@H](CCCCN)C(=O)N[C@H](CCCCN)C(=O)N[C@H](C)C(=O)N[C@H](CC(C)C)C(=O)N[C@H](CCCCN)C(=O)O [P286, Myr-d-[LKKALK]-acid] (Myristoyl-[dL][dK][dK][dA][dL][dK]-OH)
- MIC(P. cepacia) [2]: ≤ 100 ppm

Molecule: CCCCCCCCCCCCCC(=O)N[C@@H](CCCCN)C(=O)N[C@@H](CCCCN)C(=O)N[C@@H](C)C(=O)N[C@@H](CC(C)C)C(N)=O [P291, Myr-KKAL-amide] (Myristoyl-KKAL-NH2)
- increase fibroblast proliferation (qualitative) [1]: increase fibroblast proliferation
- MIC(P. cepacia) [2]: ≤ 100 ppm

Molecule: CCCCCCCCCCCCCC(=O)N[C@@H](CCCCN)C(=O)N[C@@H](CCCCN)C(=O)NCC(=O)N[C@@H](CCC(=O)O)C(=O)N[C@@H](CCSC)C(=O)O [P293, Myr-KKGEM-acid] (Myristoyl-KKGEM-OH)
- increase fibroblast proliferation (qualitative) [1]: increase fibroblast proliferation

Molecule: CCCCCCCCCCCCCC(=O)N[C@@H](CC(C)C)C(=O)N[C@@H](CCCCN)C(=O)N[C@@H](CCCCN)C(=O)N[C@@H](C)C(=O)N[C@@H](CC(C)C)C(=O)N[C@@H](CCCCN)C(N)=O [P296, Myr-LKKALK-amide] (Myristoyl-LKKALK-NH2)
- increase fibroblast proliferation (qualitative) [1]: increase fibroblast proliferation
- MIC(P. cepacia) [2]: ≤ 100 ppm

Molecule: CCCCCCCCCCCCCC(=O)N1CCC[C@H]1C(=O)N[C@@H](CCCCN)C(=O)N[C@@H](CCCCN)C(=O)N[C@@H](C)C(=O)N[C@@H](CC(C)C)C(=O)N[C@@H](CCCCN)C(N)=O [P364, Myr-PKKALK-amide] (Myristoyl-PKKALK-NH2)
- MIC(P. cepacia) [2]: ≤ 100 ppm

Molecule: CCCCCCCCCCCCCC(=O)N[C@@H](CCCCN)C(=O)N[C@@H](CCCCN)C(=O)N[C@@H](CC(C)C)C(=O)N[C@@H](C)C(=O)N[C@H](CCCCN)C(N)=O [P365, Myr-KKLA-[K]^D-amide] (Myristoyl-KKLA[dK]-NH2)
- MIC(P. cepacia) [2]: ≤ 100 ppm

Molecule: CCCCCCCCCCCCCC(=O)NCC(=O)N[C@@H](CCCNC(=N)N)C(=O)NCC(=O)N[C@@H](CC(=O)O)C(=O)N[C@@H](CO)C(N)=O [P382, Myr-GRGDS-amide]
- increase fibroblast proliferation (qualitative) [1]: increase fibroblast proliferation

Molecule: CCCCCCCC(=O)NCC(=O)N[C@@H](CCCNC(=N)N)C(=O)NCC(=O)N[C@@H](CC(=O)O)C(=O)N[C@@H](CO)C(N)=O [P387, Oct-GRGDS-amide]
- increase fibroblast proliferation (qualitative) [1]: increase fibroblast proliferation

Molecule: CCCCCCCCCCCCCC(=O)N[C@@H](CC(=O)O)C(=O)N[C@@H](C)C(=O)N[C@@H](CC(=O)O)C(=O)O [P388, Myr-DAD-acid] (Myristoyl-Asp-Ala-Asp-OH)
- increase fibroblast proliferation (qualitative) [1]: increase fibroblast proliferation

Molecule: CCCCCCCCCCCCCC(=O)N[C@@H](CC(=O)O)C(=O)N[C@@H](CC(=O)O)C(=O)N[C@@H](C)C(=O)N[C@@H](CC(=O)O)C(=O)O [P389, Myr-DDAD-acid] (Myristoyl-DDAD-OH)
- increase fibroblast proliferation (qualitative) [1]: increase fibroblast proliferation

Molecule: CCCCCCCCCCCCCCCC(=O)N[C@@H](C)C(=O)N[C@@H](C)C(=O)N[C@@H](CCCCN)C(=O)N[C@@H](CCCNC(=N)N)C(N)=O [P398, Pal-AAKR-amide] (Palmitoyl-AAKR-NH2)
- MIC(P. cepacia) [2]: ≤ 100 ppm

Molecule: CCCCCCCCCCCCCC(=O)N[C@@H](CCCCN)C(=O)N[C@H](C(=O)N[C@@H](C)C(=O)N[C@@H](CCCCN)C(=O)N[C@H](CCCCN)C(N)=O)[C@@H](C)CC [P401, Myr-KIAK-[K]^D-amide] (Myristoyl-KIAK[dK]-NH2)
- increase fibroblast proliferation (qualitative) [1]: increase fibroblast proliferation

Molecule: CCCCCCCCCCCCCC(=O)N[C@@H](CC(C)C)C(=O)N[C@@H](CCCCN)C(=O)N[C@@H](CCCCN)C(=O)N[C@@H](C)C(=O)N[C@@H](CC(C)C)C(=O)N[C@H](CCCCN)C(=O)O [P406, Myr-LKKAL-[K]^D-acid] (Myristoyl-LKKAL[dK]-OH)
- increase fibroblast proliferation (qualitative) [1]: increase fibroblast proliferation

Molecule: CCCCCCCCCCCCCC(=O)N[C@@H](CC(=O)O)C(=O)N[C@@H](CC(=O)O)C(=O)N[C@@H](CO)C(=O)N[C@@H](CO)C(=O)N[C@@H](CCCCN)C(=O)N[C@@H](CCCCN)C(N)=O [P411, Myr-DDSSKK-amide] (Myristoyl-DDSSKK-NH2)
- increase fibroblast proliferation (qualitative) [1]: increase fibroblast proliferation

Molecule: CCCCCCCCCCCCCC(=O)N[C@@H](CC(=O)O)C(=O)N[C@@H](CC(=O)O)C(=O)N[C@@H](CC(C)C)C(=O)N[C@@H](C)C(=O)N[C@@H](CCCCN)C(=O)N[C@@H](CCCCN)C(N)=O [P412, Myr-DDLAKK-amide] (Myristoyl-DDLAKK-NH2)
- increase fibroblast proliferation (qualitative) [1]: increase fibroblast proliferation

Molecule: CCCCCCCCCCCCCC(=O)N[C@@H](CCCCN)C(=O)N[C@@H](CC(C)C)C(=O)N[C@@H](C)C(=O)N[C@@H](CCCCN)C(=O)N[C@H](CCCCN)C(N)=O [P414, Myr-KLAK-[K]^D-amide] (Myristoyl-KLAK[dK]-NH2)
- increase fibroblast proliferation (qualitative) [1]: increase fibroblast proliferation

Molecule: CCCCCCCCCCCCCC(=O)N[C@H](C(=O)N[C@H](C(=O)N[C@H](C(=O)N[C@H](C(=O)N[C@H](C(=O)N[C@@H](CCCCN)C(N)=O)[C@@H](C)CC)[C@@H](C)CC)[C@@H](C)CC)[C@@H](C)CC)[C@@H](C)CC [P417, Myr-IIIIIK-amide] (Myristoyl-IIIIIK-NH2)
- increase fibroblast proliferation (qualitative) [1]: increase fibroblast proliferation

Molecule: CCCCCCCCCCCCCC(=O)N[C@H](C(=O)N[C@H](C(=O)N[C@H](C(=O)N[C@@H](CCCCN)C(=O)N[C@@H](CCCCN)C(N)=O)[C@@H](C)CC)[C@@H](C)CC)[C@@H](C)CC [P418, Myr-IIIKK-amide] (Myristoyl-IIIKK-NH2)
- increase fibroblast proliferation (qualitative) [1]: increase fibroblast proliferation

Molecule: Dod-KKALK-amide [P328]
- increase fibroblast proliferation (qualitative) [1]: increase fibroblast proliferation

Molecule: Myr-K-[K]^D-A-[L]^D-amide [P361]
- increase fibroblast proliferation (qualitative) [1]: increase fibroblast proliferation

Molecule: Myr-KGL-[K]^D-amide (Myristoyl-KGL[dK]-NH2; SMILES CCCCCCCCCCCCCC(=O)N[C@@H](CCCCN)C(=O)NCC(=O)N[C@@H](CC(C)C)C(=O)N[C@H](CCCCN)C(N)=O) [P405]
- increase fibroblast proliferation (qualitative) [1]: increase fibroblast proliferation

Molecule: Myr-KKALKL-amide (Myristoyl-KKALKL-NH2; SMILES CCCCCCCCCCCCCC(=O)N[C@@H](CCCCN)C(=O)N[C@@H](CCCCN)C(=O)N[C@@H](C)C(=O)N[C@@H](CC(C)C)C(=O)N[C@@H](CCCCN)C(=O)N[C@@H](CC(C)C)C(N)=O) [P380]
- increase fibroblast proliferation (qualitative) [1]: increase fibroblast proliferation

Molecule: Pal-AARK-amide (Palmitoyl-AARK-NH2; SMILES CCCCCCCCCCCCCCCC(=O)N[C@@H](C)C(=O)N[C@@H](C)C(=O)N[C@@H](CCCNC(=N)N)C(=O)N[C@@H](CCCCN)C(N)=O) [P397]
- increase fibroblast proliferation (qualitative) [1]: increase fibroblast proliferation

Molecule: Pal-KKLAK-amide (Palmitoyl-KKLAK-NH2; SMILES CCCCCCCCCCCCCCCC(=O)N[C@@H](CCCCN)C(=O)N[C@@H](CCCCN)C(=O)N[C@@H](CC(C)C)C(=O)N[C@@H](C)C(=O)N[C@@H](CCCCN)C(N)=O) [P333]
- increase fibroblast proliferation (qualitative) [1]: increase fibroblast proliferation

Molecule: Pal-VGVAPG-amide (Palmitoyl-VGVAPG-NH2; SMILES CCCCCCCCCCCCCCCC(=O)N[C@H](C(=O)NCC(=O)N[C@H](C(=O)N[C@@H](C)C(=O)N1CCC[C@H]1C(=O)NCC(N)=O)C(C)C)C(C)C) [P247]
- increase fibroblast proliferation [1]: at least 30%
